{"source": "patent US20240189475A1", "about": "(PUKYONG NATIONAL UNIVERSITY INDUSTRY-UNIVERSITY COOPERATION …, priority 2022, published 2024)", "origin": "cited, not measured here", "settings": "background statement"}
{"smiles": "CC(=O)c1c(O)c(C)c(O)c2c1OC1=CC(=O)C(C(C)=O)C(=O)C12C", "note": "(stereo not shown) [UA, usnic acid]", "values": [{"measurement": "solubility in water", "result": "low solubility in water"}]}
